From the kinase profiling compilation of Christmann-Franck et al. (2016)

Tests used:
Assay in all cases: radiometric filter-binding kinase assay, Kinase HotSpot
Details in all cases: compound 0.5 µM; ATP 10 µM
ACVRL1 (human) = ACVRL1 (human) (UniProt P37023)
PRKACA (human) = PRKACA (human) (UniProt P17612)
CSNK1G3 (human) = CSNK1G3 (human) (UniProt Q9Y6M4)
KIT (human) = KIT (human) (UniProt P10721)
NUAK1 (human) = NUAK1 (human) (UniProt O60285)
MARK2 (human) = MARK2 (human) (UniProt Q7KZI7)
MAPKAPK5 (human) = MAPKAPK5 (human) (UniProt Q8IW41)
ABL2 (human) = ABL2 (human) (UniProt P42684)
HIPK3 (human) = HIPK3 (human) (UniProt Q9H422)
CDK1 CCNA2 (human) = CDK1 CCNA2 (human) (UniProt P06493+P20248)
MYLK (human) = MYLK (human) (UniProt Q15746)
NLK (human) = NLK (human) (UniProt Q9UBE8)
BRSK2 (human) = BRSK2 (human) (UniProt Q8IWQ3)
NEK2 (human) = NEK2 (human) (UniProt P51955)
Chain of NEK2 (human) (P51955 whole entry, looked up): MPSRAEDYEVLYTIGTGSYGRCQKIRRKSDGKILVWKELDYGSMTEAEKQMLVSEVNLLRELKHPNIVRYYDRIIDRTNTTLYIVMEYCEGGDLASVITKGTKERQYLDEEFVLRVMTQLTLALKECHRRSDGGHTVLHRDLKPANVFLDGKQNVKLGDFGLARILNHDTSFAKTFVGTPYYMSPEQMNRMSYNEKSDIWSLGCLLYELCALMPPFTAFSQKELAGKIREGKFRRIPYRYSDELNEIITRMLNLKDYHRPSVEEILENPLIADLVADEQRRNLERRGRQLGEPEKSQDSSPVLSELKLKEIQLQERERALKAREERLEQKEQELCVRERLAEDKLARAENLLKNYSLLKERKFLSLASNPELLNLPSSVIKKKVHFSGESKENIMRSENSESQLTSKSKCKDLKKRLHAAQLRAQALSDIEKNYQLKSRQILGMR

CSNK1A1 (human) = CSNK1A1 (human) (UniProt P48729)
Chain of CSNK1A1 (human) (P48729 whole entry, looked up): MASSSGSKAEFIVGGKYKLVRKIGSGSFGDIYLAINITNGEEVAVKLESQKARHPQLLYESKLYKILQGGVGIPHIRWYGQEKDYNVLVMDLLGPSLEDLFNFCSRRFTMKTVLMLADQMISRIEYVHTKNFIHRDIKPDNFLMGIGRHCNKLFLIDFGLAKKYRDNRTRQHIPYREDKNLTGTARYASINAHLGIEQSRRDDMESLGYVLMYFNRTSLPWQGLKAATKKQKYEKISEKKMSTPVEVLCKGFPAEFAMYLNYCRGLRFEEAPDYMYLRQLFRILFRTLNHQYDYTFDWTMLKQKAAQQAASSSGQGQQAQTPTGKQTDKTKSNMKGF

FLT3 (human) = FLT3 (human) (UniProt P36888)
PRKCB2 (human) = PRKCB2 (human) (UniProt P05771)
HIPK4 (human) = HIPK4 (human) (UniProt Q8NE63)
TNK2 (human) = TNK2 (human) (UniProt Q07912)
MAPK9 (human) = MAPK9 (human) (UniProt P45984)
STK24 (human) = STK24 (human) (UniProt Q9Y6E0)
CLK4 (human) = CLK4 (human) (UniProt Q9HAZ1)
CDK9 CCNT1 (human) = CDK9 CCNT1 (human) (UniProt P50750+O60563)
GRK5 (human) = GRK5 (human) (UniProt P34947)
SRPK3 (human) = SRPK3 (human) (UniProt Q9UPE1)
GRK7 (human) = GRK7 (human) (UniProt Q8WTQ7)
Chain of GRK7 (human) (Q8WTQ7 whole entry, looked up): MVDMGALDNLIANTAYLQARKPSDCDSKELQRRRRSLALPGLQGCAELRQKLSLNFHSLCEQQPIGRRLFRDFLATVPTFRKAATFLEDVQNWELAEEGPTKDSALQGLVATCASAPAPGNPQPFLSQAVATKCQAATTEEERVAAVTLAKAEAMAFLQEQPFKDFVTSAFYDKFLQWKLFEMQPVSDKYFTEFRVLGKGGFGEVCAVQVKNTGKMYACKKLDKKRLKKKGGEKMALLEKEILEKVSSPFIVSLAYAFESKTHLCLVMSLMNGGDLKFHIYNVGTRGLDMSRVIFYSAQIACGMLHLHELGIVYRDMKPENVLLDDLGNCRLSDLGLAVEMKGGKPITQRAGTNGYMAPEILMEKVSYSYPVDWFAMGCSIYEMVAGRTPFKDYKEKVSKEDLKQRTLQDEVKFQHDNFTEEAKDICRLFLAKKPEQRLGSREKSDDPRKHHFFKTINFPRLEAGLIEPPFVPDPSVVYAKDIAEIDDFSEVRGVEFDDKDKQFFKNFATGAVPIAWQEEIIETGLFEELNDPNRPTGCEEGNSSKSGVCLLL

CSNK2A2 (human) = CSNK2A2 (human) (UniProt P19784)
AKT1 (human) = AKT1 (human) (UniProt P31749)
CSNK1E (human) = CSNK1E (human) (UniProt P49674)
FLT1 (human) = FLT1 (human) (UniProt P17948)
AURKB (human) = AURKB (human) (UniProt Q96GD4)
MERTK (human) = MERTK (human) (UniProt Q12866)
PIM1 (human) = PIM1 (human) (UniProt P11309)
KDR (human) = KDR (human) (UniProt P35968)
Chain of KDR (human) (P35968 whole entry, looked up): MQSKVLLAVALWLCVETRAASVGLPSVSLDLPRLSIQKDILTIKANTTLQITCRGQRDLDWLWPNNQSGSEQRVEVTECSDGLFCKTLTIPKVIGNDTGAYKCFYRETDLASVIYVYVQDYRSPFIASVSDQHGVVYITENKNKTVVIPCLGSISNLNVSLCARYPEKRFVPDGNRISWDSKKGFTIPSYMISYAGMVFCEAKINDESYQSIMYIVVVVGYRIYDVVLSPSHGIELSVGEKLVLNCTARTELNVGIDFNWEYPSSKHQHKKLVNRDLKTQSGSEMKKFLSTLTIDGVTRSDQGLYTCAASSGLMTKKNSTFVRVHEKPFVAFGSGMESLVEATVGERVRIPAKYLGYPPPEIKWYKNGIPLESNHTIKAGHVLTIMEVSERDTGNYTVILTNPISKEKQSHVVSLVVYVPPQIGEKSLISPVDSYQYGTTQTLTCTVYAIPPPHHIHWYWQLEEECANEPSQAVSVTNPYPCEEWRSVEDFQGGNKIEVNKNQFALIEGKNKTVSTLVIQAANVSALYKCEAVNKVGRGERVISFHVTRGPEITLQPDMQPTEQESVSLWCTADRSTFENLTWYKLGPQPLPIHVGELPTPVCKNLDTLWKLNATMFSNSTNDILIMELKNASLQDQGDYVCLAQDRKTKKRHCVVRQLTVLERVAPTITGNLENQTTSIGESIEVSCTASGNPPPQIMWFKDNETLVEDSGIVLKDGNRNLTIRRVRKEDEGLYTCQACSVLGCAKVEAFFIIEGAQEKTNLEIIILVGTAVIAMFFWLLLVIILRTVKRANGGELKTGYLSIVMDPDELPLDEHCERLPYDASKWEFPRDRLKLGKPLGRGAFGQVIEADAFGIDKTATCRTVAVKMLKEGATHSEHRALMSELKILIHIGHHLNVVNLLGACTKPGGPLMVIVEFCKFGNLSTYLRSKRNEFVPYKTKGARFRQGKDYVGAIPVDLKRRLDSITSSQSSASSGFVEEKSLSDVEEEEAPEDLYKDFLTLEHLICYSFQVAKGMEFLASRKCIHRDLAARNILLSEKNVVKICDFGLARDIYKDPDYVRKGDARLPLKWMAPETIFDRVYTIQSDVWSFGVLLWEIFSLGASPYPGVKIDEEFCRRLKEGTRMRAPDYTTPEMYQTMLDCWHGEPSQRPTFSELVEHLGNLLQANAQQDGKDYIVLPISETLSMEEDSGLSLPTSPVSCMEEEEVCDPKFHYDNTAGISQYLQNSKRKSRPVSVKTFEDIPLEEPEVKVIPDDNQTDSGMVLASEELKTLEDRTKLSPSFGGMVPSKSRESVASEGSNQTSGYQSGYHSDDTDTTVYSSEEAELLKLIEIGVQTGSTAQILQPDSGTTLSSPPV

ROCK2 (human) = ROCK2 (human) (UniProt O75116)
CDK2 CCNE1 (human) = CDK2 CCNE1 (human) (UniProt P24941+P24864)
Chain of CDK2 CCNE1 (human) (P24864 whole entry, looked up, other chains not shown): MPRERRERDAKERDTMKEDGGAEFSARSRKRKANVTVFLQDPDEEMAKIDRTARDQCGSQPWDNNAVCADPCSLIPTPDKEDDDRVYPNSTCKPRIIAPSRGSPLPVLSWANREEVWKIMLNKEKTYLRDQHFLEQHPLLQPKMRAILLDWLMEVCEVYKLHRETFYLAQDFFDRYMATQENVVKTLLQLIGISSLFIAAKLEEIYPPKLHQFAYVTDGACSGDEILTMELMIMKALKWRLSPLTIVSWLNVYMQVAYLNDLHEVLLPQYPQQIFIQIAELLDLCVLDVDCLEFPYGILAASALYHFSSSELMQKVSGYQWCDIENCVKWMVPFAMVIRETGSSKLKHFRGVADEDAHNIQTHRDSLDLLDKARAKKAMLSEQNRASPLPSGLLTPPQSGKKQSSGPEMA

EPHB1 (human) = EPHB1 (human) (UniProt P54762)
STK4 (human) = STK4 (human) (UniProt Q13043)
NTRK3 (human) = NTRK3 (human) (UniProt Q16288)
PRKCG (human) = PRKCG (human) (UniProt P05129)
EPHA2 (human) = EPHA2 (human) (UniProt P29317)
Chain of EPHA2 (human) (P29317 whole entry, looked up): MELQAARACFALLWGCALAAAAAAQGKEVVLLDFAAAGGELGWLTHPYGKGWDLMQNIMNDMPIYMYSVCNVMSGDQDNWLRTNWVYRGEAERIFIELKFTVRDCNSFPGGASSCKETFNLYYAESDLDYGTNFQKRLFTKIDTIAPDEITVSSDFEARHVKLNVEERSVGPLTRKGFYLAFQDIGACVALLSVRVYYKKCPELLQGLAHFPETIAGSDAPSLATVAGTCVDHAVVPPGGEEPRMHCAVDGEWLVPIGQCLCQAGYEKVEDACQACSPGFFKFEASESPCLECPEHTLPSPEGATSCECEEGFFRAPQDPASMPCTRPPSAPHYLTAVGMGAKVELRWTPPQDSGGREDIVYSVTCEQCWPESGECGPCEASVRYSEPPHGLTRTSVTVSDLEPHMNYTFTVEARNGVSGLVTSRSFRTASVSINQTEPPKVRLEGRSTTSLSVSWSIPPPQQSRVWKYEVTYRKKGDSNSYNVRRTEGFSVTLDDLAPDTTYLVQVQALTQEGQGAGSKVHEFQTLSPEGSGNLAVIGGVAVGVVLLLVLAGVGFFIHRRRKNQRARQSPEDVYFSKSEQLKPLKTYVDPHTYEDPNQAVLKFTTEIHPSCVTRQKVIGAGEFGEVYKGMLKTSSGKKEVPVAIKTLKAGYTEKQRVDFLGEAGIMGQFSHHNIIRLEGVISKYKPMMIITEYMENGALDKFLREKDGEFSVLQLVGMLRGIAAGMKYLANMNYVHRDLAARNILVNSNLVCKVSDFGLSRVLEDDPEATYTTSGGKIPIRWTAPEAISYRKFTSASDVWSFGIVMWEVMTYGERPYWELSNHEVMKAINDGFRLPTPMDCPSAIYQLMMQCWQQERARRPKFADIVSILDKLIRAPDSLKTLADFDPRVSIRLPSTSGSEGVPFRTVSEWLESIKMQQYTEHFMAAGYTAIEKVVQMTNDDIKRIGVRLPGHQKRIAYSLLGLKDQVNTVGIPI

Chain of KIT (human) (P10721 whole entry, looked up): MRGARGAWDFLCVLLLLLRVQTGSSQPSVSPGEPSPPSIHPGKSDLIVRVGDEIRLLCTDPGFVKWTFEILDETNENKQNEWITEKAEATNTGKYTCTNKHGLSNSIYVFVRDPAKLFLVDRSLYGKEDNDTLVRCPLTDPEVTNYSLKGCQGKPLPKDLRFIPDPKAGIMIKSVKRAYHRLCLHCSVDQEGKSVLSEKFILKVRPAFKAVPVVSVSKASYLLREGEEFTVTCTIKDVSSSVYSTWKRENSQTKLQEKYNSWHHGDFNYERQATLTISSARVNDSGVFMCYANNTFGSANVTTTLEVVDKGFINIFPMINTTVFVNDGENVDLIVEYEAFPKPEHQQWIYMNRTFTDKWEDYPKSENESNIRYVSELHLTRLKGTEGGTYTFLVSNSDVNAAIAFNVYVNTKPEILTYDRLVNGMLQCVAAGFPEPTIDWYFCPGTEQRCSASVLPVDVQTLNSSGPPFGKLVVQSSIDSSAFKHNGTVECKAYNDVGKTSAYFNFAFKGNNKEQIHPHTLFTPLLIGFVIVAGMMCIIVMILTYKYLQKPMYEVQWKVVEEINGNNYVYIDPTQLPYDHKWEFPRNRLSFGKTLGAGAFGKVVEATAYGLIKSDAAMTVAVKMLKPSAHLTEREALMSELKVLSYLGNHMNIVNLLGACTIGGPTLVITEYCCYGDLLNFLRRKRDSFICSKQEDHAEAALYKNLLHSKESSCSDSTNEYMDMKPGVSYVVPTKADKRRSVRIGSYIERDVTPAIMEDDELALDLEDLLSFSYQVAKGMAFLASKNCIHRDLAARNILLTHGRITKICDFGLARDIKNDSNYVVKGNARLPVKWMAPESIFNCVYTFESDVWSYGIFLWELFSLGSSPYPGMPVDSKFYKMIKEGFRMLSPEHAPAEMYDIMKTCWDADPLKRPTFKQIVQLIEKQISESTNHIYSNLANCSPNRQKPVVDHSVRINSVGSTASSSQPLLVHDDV

CC(=O)c1ccc(N2CCOCC2)cc1O
residual activity (ACVRL1 (human)): 103%
residual activity (PRKACA (human)): 102%
residual activity (CSNK1G3 (human)): 101%
residual activity (KIT (human)): 102%
residual activity (NUAK1 (human)): 92.8%
residual activity (MARK2 (human)): 107%
residual activity (MAPKAPK5 (human)): 96.9%
residual activity (ABL2 (human)): 104%
residual activity (HIPK3 (human)): 101%
residual activity (CDK1 CCNA2 (human)): 99.8%
residual activity (MYLK (human)): 91.1%
residual activity (NLK (human)): 95.6%
residual activity (BRSK2 (human)): 100%
residual activity (NEK2 (human)): 81.3%
residual activity (CSNK1A1 (human)): 110%
residual activity (FLT3 (human)): 102%
residual activity (PRKCB2 (human)): 97.9%
residual activity (HIPK4 (human)): 101%
residual activity (TNK2 (human)): 101%
residual activity (MAPK9 (human)): 105%
residual activity (STK24 (human)): 99%
residual activity (CLK4 (human)): 111%
residual activity (CDK9 CCNT1 (human)): 100%
residual activity (GRK5 (human)): 108%
residual activity (SRPK3 (human)): 104%
residual activity (GRK7 (human)): 100%
residual activity (CSNK2A2 (human)): 98.8%
residual activity (AKT1 (human)): 103%
residual activity (CSNK1E (human)): 96.2%
residual activity (FLT1 (human)): 97.1%
residual activity (AURKB (human)): 91.4%
residual activity (MERTK (human)): 101%
residual activity (PIM1 (human)): 97.2%
residual activity (KDR (human)): 97.7%
residual activity (ROCK2 (human)): 94.7%
residual activity (CDK2 CCNE1 (human)): 94.8%
residual activity (EPHB1 (human)): 103%
residual activity (STK4 (human)): 102%
residual activity (NTRK3 (human)): 101%
residual activity (PRKCG (human)): 98.7%
residual activity (EPHA2 (human)): 107%

Cc1[nH]c(/C=C2\C(=O)Nc3ccc(S(=O)(=O)N(C)c4cccc(Cl)c4)cc32)c(C)c1C(=O)N1CCN(C)CC1
residual activity (ACVRL1 (human)): 103%
residual activity (PRKACA (human)): 100%
residual activity (CSNK1G3 (human)): 93.3%
residual activity (KIT (human)): 51.3%
residual activity (NUAK1 (human)): 15.9%
residual activity (MARK2 (human)): 44.1%
residual activity (MAPKAPK5 (human)): 77.6%
residual activity (ABL2 (human)): 73.2%
residual activity (HIPK3 (human)): 103%
residual activity (CDK1 CCNA2 (human)): 88.7%
residual activity (MYLK (human)): 84.3%
residual activity (NLK (human)): 106%
residual activity (BRSK2 (human)): 89%
residual activity (NEK2 (human)): 50.8%
residual activity (CSNK1A1 (human)): 79.2%
residual activity (FLT3 (human)): 26.5%
residual activity (PRKCB2 (human)): 99.1%
residual activity (HIPK4 (human)): 103%
residual activity (TNK2 (human)): 65.4%
residual activity (MAPK9 (human)): 78%
residual activity (STK24 (human)): 49.6%
residual activity (CLK4 (human)): 34.3%
residual activity (CDK9 CCNT1 (human)): 91%
residual activity (GRK5 (human)): 98.9%
residual activity (SRPK3 (human)): 84.8%
residual activity (GRK7 (human)): 86.7%
residual activity (CSNK2A2 (human)): 84.6%
residual activity (AKT1 (human)): 98.8%
residual activity (CSNK1E (human)): 76.1%
residual activity (FLT1 (human)): 74.7%
residual activity (AURKB (human)): 19.2%
residual activity (MERTK (human)): 21.4%
residual activity (PIM1 (human)): 103%
residual activity (KDR (human)): 79.4%
residual activity (ROCK2 (human)): 58.2%
residual activity (CDK2 CCNE1 (human)): 87%
residual activity (EPHB1 (human)): 84.5%
residual activity (STK4 (human)): 49.1%
residual activity (NTRK3 (human)): 5.93%
residual activity (PRKCG (human)): 94.8%
residual activity (EPHA2 (human)): 97.8%

c1ccc(-c2n[nH]cc2-c2ccnc3ccccc23)nc1
residual activity (ACVRL1 (human)): 102%
residual activity (PRKACA (human)): 107%
residual activity (CSNK1G3 (human)): 96%
residual activity (KIT (human)): 93.5%
residual activity (NUAK1 (human)): 95.5%
residual activity (MARK2 (human)): 102%
residual activity (MAPKAPK5 (human)): 95.6%
residual activity (ABL2 (human)): 67.8%
residual activity (HIPK3 (human)): 97%
residual activity (CDK1 CCNA2 (human)): 82.7%
residual activity (MYLK (human)): 105%
residual activity (NLK (human)): 79.8%
residual activity (BRSK2 (human)): 101%
residual activity (NEK2 (human)): 97%
residual activity (CSNK1A1 (human)): 74.6%
residual activity (FLT3 (human)): 91.2%
residual activity (PRKCB2 (human)): 92.1%
residual activity (HIPK4 (human)): 89.9%
residual activity (TNK2 (human)): 96.2%
residual activity (MAPK9 (human)): 98.9%
residual activity (STK24 (human)): 96.8%
residual activity (CLK4 (human)): 101%
residual activity (CDK9 CCNT1 (human)): 80%
residual activity (GRK5 (human)): 109%
residual activity (SRPK3 (human)): 88.9%
residual activity (GRK7 (human)): 102%
residual activity (CSNK2A2 (human)): 96.7%
residual activity (AKT1 (human)): 100%
residual activity (CSNK1E (human)): 53.9%
residual activity (FLT1 (human)): 81.4%
residual activity (AURKB (human)): 96%
residual activity (MERTK (human)): 92.6%
residual activity (PIM1 (human)): 107%
residual activity (KDR (human)): 103%
residual activity (ROCK2 (human)): 100%
residual activity (CDK2 CCNE1 (human)): 91.3%
residual activity (EPHB1 (human)): 98.7%
residual activity (STK4 (human)): 101%
residual activity (NTRK3 (human)): 92.7%
residual activity (PRKCG (human)): 117%
residual activity (EPHA2 (human)): 103%
